Reference: patent publication US20200079766A1, “MONOCYCLIC OGA INHIBITOR COMPOUNDS” (Janssen Pharmaceutica NV, priority 2016, published 2020)

Assays:
[1] = molecular target: T1, recombinant human Meningioma Expressed Antigen 5 (MGEA5), also referred to as O-GlcNAcase (OGA) (Homo sapiens, UniProt O60502); test: OGA biochemical assay: inhibition of FM-GlcNAc hydrolysis, fluorescence; protocol A (10 nM OGA, 1 h) or protocol B (2 nM OGA, 6 h); conditions: Enzymatic protocol B (2 nM OGA, 6 h); for IC50: read-out: Enzymatic hOGA, pIC50 (converted)
T1 construct: Full length OGA enzyme was purchased at OriGene (cat # TP322411); purchased OriGene TP322411
T1 sequence (O60502 1-916): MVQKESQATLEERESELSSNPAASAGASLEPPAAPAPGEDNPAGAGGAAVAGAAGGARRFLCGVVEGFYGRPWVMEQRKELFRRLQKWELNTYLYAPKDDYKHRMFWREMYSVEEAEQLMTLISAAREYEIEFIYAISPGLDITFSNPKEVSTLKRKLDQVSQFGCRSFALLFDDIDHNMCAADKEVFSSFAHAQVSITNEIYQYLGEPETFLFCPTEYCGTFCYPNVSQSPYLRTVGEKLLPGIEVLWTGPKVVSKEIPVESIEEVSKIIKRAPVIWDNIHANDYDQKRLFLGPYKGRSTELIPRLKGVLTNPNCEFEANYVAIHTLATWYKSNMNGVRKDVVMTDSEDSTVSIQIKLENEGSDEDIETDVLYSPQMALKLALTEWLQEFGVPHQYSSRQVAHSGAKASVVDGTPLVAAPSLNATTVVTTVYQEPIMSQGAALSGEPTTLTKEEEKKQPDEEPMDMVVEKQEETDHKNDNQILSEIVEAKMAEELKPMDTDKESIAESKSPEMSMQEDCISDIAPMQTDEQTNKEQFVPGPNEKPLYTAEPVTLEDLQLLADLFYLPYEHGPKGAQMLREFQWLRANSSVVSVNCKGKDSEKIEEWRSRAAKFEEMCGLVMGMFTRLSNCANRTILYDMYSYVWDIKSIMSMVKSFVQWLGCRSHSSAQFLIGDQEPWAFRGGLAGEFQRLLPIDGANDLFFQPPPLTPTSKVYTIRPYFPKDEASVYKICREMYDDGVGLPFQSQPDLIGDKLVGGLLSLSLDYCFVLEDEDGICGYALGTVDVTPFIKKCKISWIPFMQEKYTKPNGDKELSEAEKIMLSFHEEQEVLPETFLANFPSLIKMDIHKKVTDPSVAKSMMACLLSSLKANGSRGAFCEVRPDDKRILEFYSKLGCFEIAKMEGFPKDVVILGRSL
Source text: The assay is based on the inhibition of the hydrolysis of fluorescein mono-3-D-N-Acetyl-Glucosamine (FM-GlcNAc) (Mariappa et al. 2015, Biochem J 470:255) by the recombinant human Meningioma Expressed Antigen 5 (MGEA5), also referred to as O-GlcNAcase (OGA). The hydrolysis FM-GlcNAc (Marker Gene technologies, cat # M1485) results in the formation of ß-D-N-glucosamineacetate and fluorescein. The fluorescence of the latter can be measured at excitation wavelength 485 nm and emission wavelength 538 nm. An increase in enzyme activity results in an increase in fluorescence signal. Full length OGA enzyme was purchased at OriGene (cat # TP322411). The enzyme was stored in 25 mM Tris.HCl, pH 7.3, 100 mM glycine, 10% glycerol at −20° C. Thiamet G and GlcNAcStatin were tested as reference compounds (Yuzwa et al. 2008 Nature Chemical Biology 4:483; Yuzwa et al. 2012 Nature Chemical Biology 8:393). The assay was performed in 200 mM Citrate/phosphate buffer supplemented with 0.005% Tween-20. 35.6 g Na2HPO42H2O (Sigma, # C0759) were dissolved in 1 L water to obtain a 200 mM solution. 19.2 g citric acid (Merck, #1.06580) was dissolved in 1 L water to obtain a 100 mM solution. pH of the sodiumphosphate solution was adjusted with the citric acid solution to 7.2. The buffer to stop the reaction consists of a 500 mM Carbonate buffer, pH 11.0. 734 mg
FM-GlcNAc were dissolved in 5.48 mL DMSO to obtain a 250 mM solution and was stored at −20° C. OGA was used at a 10 nM (protocol A) or 2 nM (protocol B) concentration and FM-GlcNAc at a 100 uM final concentration. Dilutions were prepared in assay buffer.
50 nl of a compound dissolved in DMSO was dispensed on Black Proxiplate™ 384 Plus Assay plates (Perkin Elmer, #6008269) and 3 μl fl-OGA enzyme mix added subsequently. Plates were pre-incubated for 60 min at room temperature and then 2 μl FM-GlcNAc substrate mix added. […] Plates were briefly centrifuged for 1 min at 1000 rpm and incubate at room temperature for 1 h (10 nM OGA, protocol A) or 6 h (2 nM OGA, protocol B). To stop the reaction 5 μl STOP buffer were added and plates centrifuge again 1 min at 1000 rpm. Fluorescence was quantified in the Thermo Scientific Fluoroskan Ascent or the PerkinElmer EnVision with excitation wavelength 485 nm and emission wavelength 538 nm.
For analysis a best-fit curve is fitted by a minimum sum of squares method. From this an IC50 value and Hill coefficient was obtained. High control (no inhibitor) and low control (saturating concentrations of standard inhibitor) were used to define the minimum and maximum values.

[2] = test system: OGA in HEK293 cells inducible for P301L mutant human Tau (isoform 2N4R); test: OGA cellular assay: immunocytochemical detection of O-GlcNAcylated proteins (CTD110.6 antibody) after 6 h incubation; format: cell-based; conditions: for Emax / EC50: Homo sapiens, HEK293, 6 h; for Emax / Cellular Emax (%): maximum = Thiamet G 200 uM; for EC50: read-out: Cellular hOGA, pEC50 (converted)
Experimental: HEK293 cells inducible for P301L mutant human Tau (isoform 2N4R) were established at Janssen. Thiamet-G was used for both plate validation (high control) and as reference compound (reference EC50 assay validation). OGA inhibition is evaluated through the immunocytochemical (ICC) detection of O-GlcNAcylated proteins by the use of a monoclonal antibody (CTD110.6; Cell Signaling, #9875) detecting O-GlcNAcylated residues as previoulsy described (Dorfmueller et al. 2010 Chemistry & biology, 17:1250). Inhibition of OGA will result in an increase of O-GlcNAcylated protein levels resulting in an increased signal in the experiment. Cell nuclei are stained with Hoechst to give a cell culture quality control and a rough estimate of immediate compounds toxicity, if any. ICC pictures are imaged with a Perkin Elmer Opera Phenix plate microscope and quantified with the provided software Perkin Elmer Harmony 4.1.
Cells were propagated in DMEM high Glucose (Sigma, # D5796) following standard procedures. 2 days before the cell assay cells are split, counted and seeded in Poly-D-Lysine (PDL) coated 96-wells (Greiner, #655946) plate at a cell density of 12,000 cells per cm^2 (4,000 cells per well) in 100 μl of Assay Medium (Low Glucose medium is used to reduce basal levels of GlcNAcylation) (Park et al. 2014 The Journal of biological chemistry 289:13519). At the day of compound test medium from assay plates was removed and replenished with 90 μl of fresh Assay Medium. 10 μl of compounds at a 10 fold final concentration were added to the wells. Plates were centrifuged shortly before incubation in the cell incubator for 6 hours. DMSO concentration was set to 0.2%. Medium is discarded by applying vacuum. For staining of cells medium was removed and cells washed once with 100 μl D-PBS (Sigma, # D8537). From next step onwards unless other stated assay volume was always 50 μl and incubation was performed without agitation and at room temperature. Cells were fixed in 50 μl of a 4% paraformaldehyde (PFA, Alpha aesar, #043368) PBS solution for 15 minutes at room temperature. […] Before analysis samples were washed 2 times manually for 5 minutes in ICC base buffer.
Imaging is performed using Perkin Elmer Phenix Opera using a water 20× objective and recording 9 fields per well. Intensity readout at 488 nm is used as a measure of O-GlcNAcylation level of total proteins in wells. To assess potential toxicity of compounds nuclei were counted using the Hoechst staining. IC50-values are calculated using parametric non-linear regression model fitting. As a maximum inhibition Thiamet G at a 200 uM concentration is present on each plate. In addition, a concentration response of Thiamet G is calculated on each plate.

SMILES | Emax [1] [%] | IC50 [1] [nM] | Enzymatic Emax (%) [1] [%] | Enzymatic hOGA; pIC50 [1] | Emax [2] [%] | EC50 [2] [nM] | Cellular hOGA; pEC50 [2] | Cellular Emax (%) [2] [%]
Cc1cc(O[C@@H]2CCCN(C(C)c3ccc4nccnc4c3)C2)cc(C)n1 (mixture of isomers) [compound 19] | 100 | 6.92 | – | – | 73.3 | 1380 | – | –
Cc1cc(C[C@H]2CCN(C(C)c3ccc4sc(C)nc4c3)C2)cc(C)n1 (mixture of isomers) [compound 87] | 101 | 58.9 | – | – | 28.6 | > 1000 | – | –
Cc1cc(C[C@H]2CCN(C(C)c3ccc4scnc4c3)C2)cc(C)n1 (mixture of isomers) [compound 88] | – | – | – | – | 50.7 | 603 | – | –
Cc1cc(C[C@H]2CCN(C(C)c3ccc4c(c3)OCO4)C2)cc(C)n1 (mixture of isomers) [compound 93] | 98.4 | 309 | – | – | 37.7 | > 1000 | – | –
Cc1cc(CC2CCN(C(C)c3ccc4c(c3)OCCO4)C2)cc(C)n1.Cl.Cl (mixture of isomers) [compound 95] | – | – | 101 | 6.81 | – | – | <6 | 38.2
Cc1cc(C[C@H]2CCN(C(C)c3ccc4nccnc4c3)C2)cc(C)n1 (mixture of isomers) [compound 100] | 97 | 427 | – | – | 23.1 | > 1000 | – | –
CC(=O)Nc1ncc(CN2CCC[C@H](Oc3ccnc(C)c3)C2)s1 (racemic) [compound 17] | 100 | 64.6 | – | – | 96.2 | 389 | – | –
CC(=O)Nc1ncc(CN2CCC[C@H](Cc3cc(C)nc(C)n3)C2)s1 (single isomer, unassigned) [compound 25] | 101 | 1.82 | – | – | 97.8 | 9.77 | – | –
CC(=O)Nc1ncc(CN2CCC[C@@H](Cc3cc(C)nc(C)n3)C2)s1 (single isomer, unassigned) [compound 26] | 99.5 | 26.9 | – | – | 72.3 | 525 | – | –
Cc1cc(CC2CCCN(C(C)c3ccc4sc(C)nc4c3)C2)cc(C)n1 (single isomer, unassigned) [compound 118] | 100 | 46.8 | – | – | – | – | 6.24 | 62.2
Cc1cc(CC2CCCN(C(C)c3ccc4sc(C)nc4c3)C2)cc(C)n1 (single isomer, unassigned) [compound 119] | – | 2.88 | 103.7 | – | – | – | 7.38 | 107.3

Second part, led by results:

Emax [1] [%] | IC50 [1] [nM] | Enzymatic Emax (%) [1] [%] | Enzymatic hOGA; pIC50 [1] | SMILES | Emax [2] [%] | EC50 [2] [nM] | Cellular hOGA; pEC50 [2] | Cellular Emax (%) [2] [%]
101 | 3.89 | – | – | CC(=O)Nc1ncc(C(C)N2CCCC(COc3cc(C)nc(C)c3)C2)s1 (racemic) [compound 133] | 98.9 | 11.2 | – | –
101 | 10 | – | – | Cc1cc(CC2CCCN(C(C)c3ccc4nccnc4c3)C2)cc(C)n1 (racemic) [compound 139] | 75 | 170 | – | –
102 | 11 | – | – | Cc1cc(CC2CCCN(C(C)c3ccc4c(c3)OCO4)C2)cc(C)n1 (racemic) [compound 141] | 83.5 | 87.1 | – | –
102 | 4.9 | – | – | Cc1cc(CC2CCCN(C(C)c3ccc4c(c3)OCCO4)C2)cc(C)n1 (racemic) [compound 142] | 100 | 60.3 | – | –
102 | 6.31 | – | – | Cc1cc(CC2CCCN(C(C)c3ccc4scnc4c3)C2)cc(C)n1 (racemic) [compound 148] | 105 | 56.2 | – | –
101 | 6.03 | – | – | CC(=O)Nc1ncc(CN2CCCC(Nc3ccnc(C)c3)C2)s1 (racemic) [compound 155] | 84.2 | 14.8 | – | –
97.4 | 43.7 | – | – | Cc1cc(NC2CCCN(C(C)c3ccc4nccnc4c3)C2)cc(C)n1 (racemic) [compound 156] | 89 | 468 | – | –
